From PMC7048192, “7-Acylamino-3H-1,2-benzoxathiepine 2,2-dioxides as new isoform-selective carbonic anhydrase IX and XII inhibitors” (Journal of Enzyme Inhibition and Medicinal Chemistry, 2020) come the findings set out here.

Assay in all cases: stopped-flow CO2 hydrase assay
Holding throughout (format): biochemical

The target of one experiment is T1, hCA I (Homo sapiens, UniProt P00915).
T1 construct: gene CA1; recombinant, obtained in-house
The note with it: read-out: KI (nM)^a,b / hCA I. The source says: stopped-flow CO2 hydrase assay on hCA I

The target of the next experiment is T2, hCA II (Homo sapiens, UniProt P00918).
T2 construct: gene CA2; recombinant, obtained in-house
The note with it: read-out: KI (nM)^a,b / hCA I.

Another experiment concerns the target T3, hCA XII (Homo sapiens, UniProt O43570).
T3 construct: gene CA12; recombinant, obtained in-house
The note with it: read-out: KI (nM)^a,b / hCA XII. The source says:
stopped-flow CO2 hydrase assay on hCA XII

For the next experiment, the target named is T4, hCA IX (Homo sapiens, UniProt Q16790).
T4 construct: gene CA9; recombinant, obtained in-house
Conditions: read-out: KI (nM)^a,b / hCA IX. The source says: stopped-flow CO2 hydrase assay on hCA IX

T3 sequence (O43570 25-354): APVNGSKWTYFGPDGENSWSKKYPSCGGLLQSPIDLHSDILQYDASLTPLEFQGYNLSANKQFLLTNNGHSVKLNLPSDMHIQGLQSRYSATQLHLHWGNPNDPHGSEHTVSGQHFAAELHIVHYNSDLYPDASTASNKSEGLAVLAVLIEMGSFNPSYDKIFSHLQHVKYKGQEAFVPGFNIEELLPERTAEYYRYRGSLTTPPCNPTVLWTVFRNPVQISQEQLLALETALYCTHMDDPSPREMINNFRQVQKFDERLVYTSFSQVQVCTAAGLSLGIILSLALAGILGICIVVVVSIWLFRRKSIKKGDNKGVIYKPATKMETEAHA
T1 sequence (P00915 2-261): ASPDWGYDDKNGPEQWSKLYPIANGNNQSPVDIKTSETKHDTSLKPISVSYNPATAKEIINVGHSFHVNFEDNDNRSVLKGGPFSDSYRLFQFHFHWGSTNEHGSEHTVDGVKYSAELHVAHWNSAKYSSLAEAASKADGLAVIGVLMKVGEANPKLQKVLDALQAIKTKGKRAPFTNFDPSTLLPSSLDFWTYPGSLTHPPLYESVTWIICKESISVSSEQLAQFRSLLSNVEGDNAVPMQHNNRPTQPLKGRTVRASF

As to `Cc1ccc(C(=O)Nc2ccc3c(c2)C=CCS(=O)(=O)O3)cc1` [compound 10, N-(2,2-Dioxido-3H-1,2-benzoxathiepin-7-yl)-4-methy benzamide], the Ki at hCA I was more than 100000 nM; on hCA II, more than 100000 nM; on hCA XII, 309 nM; at hCA IX, 83 nM.
Take `O=C(Nc1ccc2c(c1)C=CCS(=O)(=O)O2)c1cccs1` [compound 16, N-(2,2-Dioxido-3H-1,2-benzoxathiepin-7-yl)thiophene-2-carboxamide]: the Ki on hCA I was more than 100000 nM; on hCA II it was more than 100000 nM; on hCA XII, 73.2 nM; on hCA IX, 178 nM.
In the case of `CC(=O)Nc1ccc2c(c1)C=CCS(=O)(=O)O2` [compound 8, N-(2,2-Dioxido-3H-1,2-benzoxathiepin-7-yl)acetamide], the Ki was more than 100000 nM at hCA I, more than 100000 nM on hCA II, 162 nM on hCA XII and 61.8 nM on hCA IX.
As to `O=C(Nc1ccc2c(c1)C=CCS(=O)(=O)O2)c1ccccc1Br` [compound 13, N-(2,2-Dioxido-3H-1,2-benzoxathiepin-7-yl)-2-bromobenzamide], the Ki was more than 100000 nM at hCA I, more than 100000 nM at hCA II, 96.2 nM at hCA XII and 66.8 nM at hCA IX.
On to `O=C(Nc1ccc2c(c1)C=CCS(=O)(=O)O2)c1ccco1` [compound 17, N-(2,2-Dioxido-3H-1,2-benzoxathiepin-7-yl)furan-2-carboxamide], for which the Ki is more than 100000 nM on hCA I, more than 100000 nM at hCA II, 134 nM at hCA XII and 210 nM at hCA IX.
`O=C(Nc1ccc2c(c1)C=CCS(=O)(=O)O2)c1ccccc1C(F)(F)F` [compound 15, N-(2,2-Dioxido-3H-1,2-benzoxathiepin-7-yl)-2-(trifluoromethyl)benzamide]: the Ki at hCA I was more than 100000 nM; on hCA II it was more than 100000 nM; on hCA XII it was 8.7 nM; on hCA IX it was 19.7 nM.
Turning to `O=C(Nc1ccc2c(c1)C=CCS(=O)(=O)O2)c1ccccc1F` [compound 14, N-(2,2-Dioxido-3H-1,2-benzoxathiepin-7-yl)-2-fluorobenzamide], the Ki at hCA I is more than 100000 nM; on hCA II, more than 100000 nM; at hCA XII, 40.3 nM; at hCA IX it was 74.6 nM.
With `O=C(Nc1ccc2c(c1)C=CCS(=O)(=O)O2)c1ccc(Br)cc1` [compound 11, N-(2,2-Dioxido-3H-1,2-benzoxathiepin-7-yl)4-bromobenzamide], the Ki at hCA I was more than 100000 nM; at hCA II it was more than 100000 nM; at hCA XII, 141 nM; at hCA IX, 353 nM.
Regarding `O=C(Nc1ccc2c(c1)C=CCS(=O)(=O)O2)c1ccccc1` [compound 9, N-(2,2-Dioxido-3H-1,2-benzoxathiepin-7-yl)benzamide], the Ki on hCA I is more than 100000 nM; at hCA II, more than 100000 nM; at hCA XII, 370 nM; on hCA IX it was 209 nM.
Take `O=C(Nc1ccc2c(c1)C=CCS(=O)(=O)O2)c1ccccc1I` [compound 12, N-(2,2-Dioxido-3H-1,2-benzoxathiepin-7-yl)-2-iodobenzamide]: the Ki is more than 100000 nM at hCA I, more than 100000 nM at hCA II, 644 nM at hCA XII and 45.4 nM at hCA IX.
